In patent US9642889B2, “Macrocyclic inhibitors of Flaviviridae viruses” (Selcia Limited, priority 2012, dated 2017):

How the values were obtained:
cyclophilin A = cyclophilin A (Homo sapiens, UniProt P62937); assay: Cyclophilin A TR-FRET competitive binding assay; settings: competition with CsA-Cy5 for His-tagged CypA, two-hour incubation
Description: Cyclophilin A TR-FRET Competitive Binding Assay
Inhibitor potency was measured using a competitive binding assay with a time-resolved fluorescence resonance energy transfer (TR-FRET) readout. […] An IC50 value was calculated using a four-parameter logistic fit.

[1] = tested on: Huh-7 HCV replicon cells (1b replicon); assay: anti-HCV activity in Huh-7 cell line harboring a HCV replicon (luciferase readout); type: cell-based; settings: for EC50 / inhibition at 1 µM: Hepatitis C virus; for EC50: Huh-7, 72 h, inhibition of viral replication, Huh-7 HCV replicon cells, 3 days, read-out: EC50; for inhibition at 1 µM: Huh-7, read-out: Replicon 1b % inhibition at 1 μM, 1b replicon, 1 μM compound

Sequence of cyclophilin A (P62937 whole entry, species assumed): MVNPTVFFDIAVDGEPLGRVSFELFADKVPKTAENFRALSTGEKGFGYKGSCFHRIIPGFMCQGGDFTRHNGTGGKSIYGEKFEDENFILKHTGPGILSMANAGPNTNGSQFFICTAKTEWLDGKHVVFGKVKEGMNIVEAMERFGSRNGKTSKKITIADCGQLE

CC(C)[C@@H]1OC(=O)[C@]2(/C=C/c3ccc4ccc(nc4c3)[C@@H](C)N(C)C(=O)[C@@H]3CCCN(N3)C(=O)[C@H](C)NC1=O)CC[C@H](O)CC2 [Compound 42]
IC50 (cyclophilin A): < 100 nM
EC50 [1]: < 1000 nM
inhibition at 1 µM [1]: 96%

CC(C)[C@@H]1OC(=O)C2(/C=C/c3ccc4ccc(nc4c3)[C@@H](C)NC(=O)[C@@H]3CCCN(N3)C(=O)[C@H](C)NC1=O)CCC(C)(O)CC2 (stereo partly drawn) [Compound 89]
IC50 (cyclophilin A): < 100 nM
EC50 [1]: < 1000 nM
inhibition at 1 µM [1]: 82%

C[C@@H]1NC(=O)[C@H](C2COC2)OC(=O)C(C)(C)/C=C/c2ccc3ccc(nc3c2)[C@@H](C)NC(=O)[C@@H]2CCCN(N2)C1=O [Compound 95]
IC50 (cyclophilin A): < 100 nM
EC50 [1]: < 1000 nM
inhibition at 1 µM [1]: 88%

CC(C)[C@@H]1N[C@@H](C(F)(F)F)C(C)(C)/C=C/c2ccc3ccc(nc3c2)[C@@H](C)OC(=O)[C@@H]2CCCN(N2)C(=O)[C@H](C)NC1=O [Compound 32]
IC50 (cyclophilin A): 101 to 1000 nM
EC50 [1]: 1100 to 10000 nM
inhibition at 1 µM [1]: 56%

CC(C)[C@@H]1OC(=O)[C@@](C)(COC(F)F)/C=C/c2ccc3ccc(nc3c2)[C@@H](C)NC(=O)[C@@H]2CCCN(N2)C(=O)[C@H](C)NC1=O [Compound 55]
IC50 (cyclophilin A): < 100 nM
EC50 [1]: < 1000 nM
inhibition at 1 µM [1]: 100%

CC1NC(=O)C(C2CC2)OC(=O)C2(C=Cc3ccc4ccc(nc4c3)C(C)NC(=O)C3CCCN(N3)C1=O)CCC(O)C2 (single isomer, unassigned) [Compound 103]
IC50 (cyclophilin A): < 100 nM
Replicon 1b % inhibition at 1 μM ([1]; 1b replicon, 1 μM compound, 1 µM): 90%
EC50 [1]: < 1000 nM

CC(C)[C@@H]1OC(=O)C(C)(C)C/C=C/c2cc3cc(ccc3cn2)[C@@H](C)NC(=O)[C@@H]2CCCN(N2)C(=O)[C@H](C)NC1=O [Compound 12]
IC50 (cyclophilin A): < 100 nM
EC50 [1]: < 1000 nM
inhibition at 1 µM [1]: 100%

CC(C)[C@@H]1OC(=O)[C@H](CCC(C)N(C)C)C/C=C/c2cc3cc(ccc3cn2)[C@@H](C)NC(=O)[C@@H]2CCCN(N2)C(=O)[C@H](C)NC1=O (mixture of isomers) [Compound 16]
IC50 (cyclophilin A): < 100 nM
EC50 [1]: 1100 to 10000 nM
inhibition at 1 µM [1]: 20%

CC(C)[C@@H]1OC(=O)C2(/C=C/c3ccc4ccc(nc4c3)[C@@H](C)NC(=O)[C@@H]3CCCN(N3)C(=O)[C@H](C)NC1=O)CCCOC2 (single isomer, unassigned) [Compound 51]
IC50 (cyclophilin A): < 100 nM
EC50 [1]: < 1000 nM
inhibition at 1 µM [1]: 100%

CC(C)[C@@H]1OC(=O)[C@H](C)[C@H](O)CC/C=C/c2cccc(c2)[C@@H](C)NC(=O)[C@@H]2CCCN(N2)C(=O)[C@H](C)NC1=O [Compound 7, (E)-(2R,5S,11S,14S,17R,18R)-18-Hydroxy-14-isopropyl-2,11,17-trimethyl-15-oxa-3,9,12,28-tetraaza-tricyclo[21.3.1.1*5,9*]octacosa-1(26),21,23(27),24-tetraene 4,10,13,16-tetraone]
IC50 (cyclophilin A): < 100 nM
EC50 [1]: < 1000 nM
inhibition at 1 µM [1]: 94%

CC(C)[C@@H]1OC(=O)[C@]2(/C=C/c3ccc4ccc(nc4c3)[C@@H](C)NC(=O)[C@@H]3CCCN(N3)C(=O)[C@H](C)NC1=O)CCOC(C)(C)C2 [Compound 91]
IC50 (cyclophilin A): < 100 nM
EC50 [1]: < 1000 nM
inhibition at 1 µM [1]: 100%

CC(C)[C@@H]1NCC(C)(C)/C=C/c2ccc3ccc(nc3c2)[C@@H](C)OC(=O)[C@@H]2CCCN(N2)C(=O)[C@H](C)NC1=O [Compound 25]
IC50 (cyclophilin A): < 100 nM
EC50 [1]: < 1000 nM
inhibition at 1 µM [1]: 98%

CC(C)[C@@H]1OC(=O)[C@@](C)(CO)/C=C/c2ccc3ccc(nc3c2)[C@@H](C)NC(=O)[C@@H]2CCCN(N2)C(=O)[C@H](C)NC1=O [Compound 29]
IC50 (cyclophilin A): < 100 nM
EC50 [1]: < 1000 nM
inhibition at 1 µM [1]: 99%

CC(C)[C@@H]1OCCC/C=C/c2cc3cc(ccc3cn2)[C@@H](C)OC(=O)[C@@H]2CCCN(N2)C(=O)[C@H](C)NC1=O [Compound 23]
IC50 (cyclophilin A): < 100 nM
EC50 [1]: < 1000 nM
inhibition at 1 µM [1]: 97%

C[C@@H]1NC(=O)[C@H](C2CC2)OC(=O)C(C)(C)/C=C/c2ccc3ccc(nc3c2)[C@@H](C)NC(=O)[C@@H]2CCCN(N2)C1=O [Compound 78]
IC50 (cyclophilin A): < 100 nM
EC50 [1]: < 1000 nM
inhibition at 1 µM [1]: 99%
